In brackets after ≈: the same amount, converted by molar mass. Activity calls are given as the source filed them. No cut-off for these calls is given here. A value given as a limit tells only on which side of the number the result lay.

Here are results for seven molecules from ChEMBL document CHEMBL3763135, “Synthesis and evaluation of thiophene-based guanylhydrazones (iminoguanidines) efficient against panel of voriconazole-resistant fungal isolates” (Bioorg Med Chem, 2016).

For one data set, the system named is Microsporum canis. In words: Antifungal activity against Microsporum canis DMT2 by broth dilution method. The data set is classed as functional. For orientation: Broth dilution looks for growth in wells or tubes with falling amounts of substance.
The subject of another data set is Fusarium oxysporum. Kind of data set: Antifungal activity against Fusarium oxysporum AB18 by broth dilution method. The data set is classed as functional.
Data set [1] relates to Candida albicans. Kind of data set: Antifungal activity against Candida albicans ATCC 10231 by broth dilution method. The data set is classed as functional.
Data set [2] deals with Candida parapsilosis. Kind of data set: Antibiofilm activity against Candida parapsilosis C27 assessed as disruption of preformed biofilm after 24 hrs by concanavalin A-FITC-staining based fluorescence microscopic analysis. The format is functional.
Data set [3] relates to Candida albicans. In words: Antifungal activity against Candida albicans CA5 by broth dilution method. The format is functional.
Data set [4] has as its system Candida albicans. In words: Induction of DNA intercalation with Candida albicans genomic DNA at 25 ug/ml after 12 hrs by ethidium bromide staining based gel electrophoresis method.
The test system of the next data set is Aspergillus fumigatus. In words: Antifungal activity against Aspergillus fumigatus ATCC 13073 by broth dilution method. The data set is classed as functional.
Data set [5] in a line: Hemolytic effect in sheep RBC assessed as release of hemoglobin at cytotoxic IC50 after 1 hr. Particulars: sheep red blood cells, read-out: Activity. The data set is classed as cell-based, Ovis aries, Erythrocyte.
Data set [6] relates to Candida albicans. Kind of data set: Antibiofilm activity against Candida albicans ATCC 10231 assessed as disruption of preformed biofilm after 24 hrs by concanavalin A-FITC-staining based fluorescence microscopic analysis. The data set is classed as functional.
The test system of data set [7] is Candida parapsilosis. Kind of data set: Antifungal activity against Candida parapsilosis C27 by broth dilution method. As to conditions: Lodderomyces parapsilosis. The data set is classed as functional.
Another data set deals with MRC5. Kind of data set: Cytotoxicity against human MRC5 cells after 48 hrs by MTT assay. The data set is classed as cell-based. As to conditions: MRC5, 48 h. Background: Tetrazolium assays rely on reduction of a dye to a coloured formazan, in cell work by metabolically active cells.
In data set [8] the test system is Pichia kudriavzevii. Kind of data set: Antifungal activity against Candida krusei ATCC 34135 by broth dilution method. The data set is classed as functional.
Data set [9] deals with Candida albicans. In words: Antibiofilm activity against Candida albicans assessed as inhibition of Spider medium-induced hyphae formation at sub-MIC after 24 hrs by propidium iodide and FITC-conjugated concanavaline A staining based fluorescence microscopy. The format is functional, organism-based.
Data set [10] is described as follows: Hemolytic effect in sheep RBC assessed as release of hemoglobin at MIC after 1 hr. As to conditions: sheep red blood cells, read-out: Activity. The format is ADME, cell-based, Ovis aries, Erythrocyte.
For data set [11], the system named is Pichia kudriavzevii. Kind of data set: Antibiofilm activity against Pichia kudriavzevii ATCC 34135 assessed as disruption of preformed biofilm after 24 hrs by concanavalin A-FITC-staining based fluorescence microscopic analysis. The format is functional.
Data set [12] concerns Trichophyton mentagrophytes. In words: Antifungal activity against Trichophyton mentagrophytes DMT4 by broth dilution method. The data set is classed as functional.
Data set [13] in a line: Induction of membrane damage in PC/PS liposome assessed as calcein release at MIC after 30 mins by fluorescence-based liposome leakage assay. The data set is classed as functional.

In the case of `Cl.N#Cc1ccc(-c2ccc(/C=N/NC(=N)N)s2)cc1`, the MIC (in general, the least concentration at which growth counts as inhibited) is 0.97 µg/mL in the data set on Microsporum canis; greater than 250 µg/mL against Fusarium oxysporum; 3.9 µg/mL with Candida albicans [1]; 7.8 µg/mL in the data set on Candida albicans [3]; 25 µg/mL in the data set with Aspergillus fumigatus; 12.5 µg/mL against Candida parapsilosis [7]. The MIC was determined as 25 µg/mL against Pichia kudriavzevii [8] and 6.25 µg/mL in [12]. In addition, the MBEC is 1000 µg/mL in the data set with Candida parapsilosis [2], 250 µg/mL in the data set on Candida albicans [6] and greater than 1000 µg/mL with Pichia kudriavzevii [11]. The outcome in the data set on Candida albicans [4] and with Candida albicans [9] was Active. The hemolysis at 1 h in [5] and in data set [10] was no more than 10% throughout. The IC50 (as a rule, the midpoint of a concentration-inhibition curve) with MRC5 was found to be 5 µg/mL.
Turning to `Cl.N=C(N)N/N=C/c1ccc(-c2ccccc2)o1`, the MIC in the data set with Microsporum canis was 1.56 µg/mL; against Fusarium oxysporum, 125 µg/mL; in the data set on Candida albicans [1], 7.8 µg/mL; with Candida albicans [3], 15.6 µg/mL; against Aspergillus fumigatus, 125 µg/mL; in the data set with Candida parapsilosis [7], 50 µg/mL. In addition, the MIC worked out at 50 µg/mL against Pichia kudriavzevii [8] and 6.25 µg/mL in data set [12]. The MBEC in the data set with Candida parapsilosis [2] was 1000 µg/mL; with Candida albicans [6], 500 µg/mL; with Pichia kudriavzevii [11] it was 500 µg/mL. Further, the outcome with Candida albicans [4] and with Candida albicans [9] was Active. Moreover, the hemolysis at 1 h in data set [5] and in data set [10] was no more than 10% in each case. In addition, half-maximal inhibition in the data set on MRC5 (IC50) required 20 µg/mL.
Consider NYSTATIN, for which the Activity in [13] is 21%.
`Cl.N=C(N)N/N=C/c1ccc(-c2ccc(F)cc2)s1`: the MIC in the data set on Microsporum canis was 0.97 µg/mL; against Fusarium oxysporum, greater than 250 µg/mL; in the data set on Candida albicans [1], 3.9 µg/mL; against Candida albicans [3], 1.95 µg/mL; in the data set on Aspergillus fumigatus, 25 µg/mL; with Candida parapsilosis [7], 6.25 µg/mL. The MIC came out at 6.25 µg/mL in the data set with Pichia kudriavzevii [8] and 1.56 µg/mL in [12]. The MBEC with Candida parapsilosis [2], in the data set on Candida albicans [6] and in the data set on Pichia kudriavzevii [11] was greater than 1000 µg/mL throughout. The outcome in the data set with Candida albicans [4] and with Candida albicans [9] was Active. In addition, the hemolysis at 1 h in data set [5] and in [10] was no more than 10% throughout. The IC50 in the data set on MRC5 worked out at 4 µg/mL.
Regarding `Cl.N=C(N)N/N=C/c1ccc(-c2ccccc2)s1`, the MIC was determined as 1.56 µg/mL in the data set with Microsporum canis; 62.5 µg/mL in the data set on Fusarium oxysporum; 1.95 µg/mL in the data set on Candida albicans [1]; 1.95 µg/mL against Candida albicans [3]; 25 µg/mL in the data set with Aspergillus fumigatus; 6.25 µg/mL against Candida parapsilosis [7]. Moreover, the MIC against Pichia kudriavzevii [8] was 6.25 µg/mL; in [12], 3.12 µg/mL. For the same molecule, the values for the MBEC in the data set on Candida parapsilosis [2], in the data set on Candida albicans [6] and in the data set with Pichia kudriavzevii [11] were greater than 1000 µg/mL, 1000 µg/mL and greater than 1000 µg/mL, respectively. The result in the data set on Candida albicans [4] and with Candida albicans [9] was Active. Also, the hemolysis at 1 h in data set [5] and in data set [10] was no more than 10% throughout. The IC50 in the data set with MRC5 amounted to 5 µg/mL.
For `O=Cc1ccc(-c2ccccc2)s1`, the MIC is 250 µg/mL (≈ 1330 µM) against Microsporum canis; 250 µg/mL (≈ 1330 µM) in the data set on Fusarium oxysporum; 250 µg/mL (≈ 1330 µM) in the data set on Candida albicans [1]; 250 µg/mL (≈ 1330 µM) with Candida albicans [3]; 125 µg/mL (≈ 664 µM) with Aspergillus fumigatus; greater than 250 µg/mL in the data set on Candida parapsilosis [7]. Moreover, the MIC in the data set on Pichia kudriavzevii [8] was greater than 250 µg/mL; in data set [12], 250 µg/mL (≈ 1330 µM). Besides, the MBEC in the data set on Candida parapsilosis [2], with Candida albicans [6] and with Pichia kudriavzevii [11] was greater than 1000 µg/mL in each case. The result with Candida albicans [4] was inactive. For the same molecule, the hemolysis at 1 h in data set [5] and in data set [10] was no more than 10% throughout. In the data set on MRC5, this molecule gave an IC50 of 50 µg/mL (≈ 266 µM). Also, the outcome in the data set with Candida albicans [9] was Active.
As to `COc1ccc(-c2ccc(/C=N/NC(=N)N)s2)cc1.Cl`, the MIC in the data set on Microsporum canis is 0.97 µg/mL; against Fusarium oxysporum it was greater than 250 µg/mL; against Candida albicans [1] it was 7.8 µg/mL; with Candida albicans [3] it was 3.9 µg/mL; against Aspergillus fumigatus, 25 µg/mL; with Candida parapsilosis [7], 6.25 µg/mL. Further, the MIC against Pichia kudriavzevii [8] amounted to 6.25 µg/mL; in data set [12] it was 3.12 µg/mL. For the same molecule, the MBEC in the data set with Candida parapsilosis [2] amounted to 1000 µg/mL; with Candida albicans [6] it was 500 µg/mL; in the data set with Pichia kudriavzevii [11], 1000 µg/mL. Moreover, the outcome with Candida albicans [4] and with Candida albicans [9] was Active. For the same molecule, the hemolysis at 1 h in data set [5] and in data set [10] was no more than 10% in each case. The molecule further came in with an IC50 in the data set on MRC5 of 5 µg/mL.
